Test results: patent US7189351B2, “D-tagatose as an anti-biofilm agent” (priority 2001, dated 2007)

Experiments:
[1] = tested on: F. nucleatum PK1594 and P. gingivalis PK1924; experiment: phase-contrast photomicrographs of coaggregation; type: cell-based, Fusobacterium nucleatum; Porphyromonas gingivalis
[2] = tested on: Prevotella loescheii PK1295/Streptococcus oralis SO34; experiment: reversal of coaggregation, visual score; type: cell-based; parameters: key: *: Coaggregations were reversed by both D-galactose and D-tagatose
Experimental: (§1) Fifteen oral isolates, including both early colonizers (Streptococcus and Actinomyces) and late colonizers (Fusobacterium, Porphyromonas, Prevotella, Veillonella, Capnocytophaga, and Actinobacillus), were tested for their ability to coaggregate with each other, followed by testing for the reversal of coaggregation by the addition of D-tagatose. Bacterial strains used were of human gingival crevice origin. The coaggregation was examined visually by a scoring system ranging from 0 for no visible coaggregation to 4 for maximum coaggregation [Cisar J. O., Kolenbrander P. E., and McIntire F. C., “Specificity of coaggregation reactions between human oral streptococci and strains of Actinomyces viscosus or Actinomyces naeslundii”, Infect. Immun., 24:742–752. 1979]. D-Tagatose, at a concentration of less than 750 mM, completely reversed the coaggregation of 17 (60%) of 28 strong coaggregating pairs (with a coaggregation score of 2 or higher) tested. […] These D-tagatose sensitive coaggregations were D-galactose reversible as well.
(§2) Pairs of various species of oral bacteria were tested for coaggregation, and for reversal of coaggregation when D-tagatose or D-galactose was administered.

[3] = tested on: Prevotella loescheii PK1295/Streptococcus oralis C104; experiment: reversal of coaggregation, visual score; type: cell-based; parameters: key: *: Coaggregations were reversed by both D-galactose and D-tagatose
Experimental: as §1, §2

[4] = tested on: Fusobacterium nucleatum PK1594/Capnocytophaga ochracea 25; experiment: reversal of coaggregation, visual score; type: cell-based; parameters: key: *: Coaggregations were reversed by both D-galactose and D-tagatose; settings: pair PK1594/Capno 25; coaggregation score 1 without sugar
Experimental: as §1, §2

[5] = tested on: coaggregating pairs of oral isolates (early and late colonizers); experiment: reversal of coaggregation among fifteen oral isolates (overall); type: cell-based, bacterial strains of human gingival crevice origin
Experimental: as §1, §2

[6] = tested on: Actinomyces naeslundii PK29/Streptococcus morbillorum PK509; experiment: reversal of coaggregation, visual score; type: cell-based; parameters: key to reversal of coaggregation: *: Coaggregations were reversed by both D-galactose and D-tagatose; settings: for coaggregation score: pair PK29/PK509, water score 2, scale 0 no visible to 4 maximum coaggregation; for reversal of coaggregation: pair PK509/PK29, coaggregation score 2 without sugar
Experimental: as §1, §2

[7] = tested on: Veillonella atypica PK1910/Streptococcus oralis C104; experiment: reversal of coaggregation, visual score; type: cell-based; parameters: key to coaggregation score without sugar: *: Coaggregations were reversed by both D-galactose and D-tagatose; settings: for coaggregation score without sugar: pair Cl04/PK1910, coaggregation score 3 without sugar; for coaggregation score: pair PK1910/C104, water score 3, scale 0 no visible to 4 maximum coaggregation
Experimental: as §1, §2

[8] = tested on: Actinomyces naeslundii PK29/Streptococcus oralis SO34; experiment: reversal of coaggregation, visual score; type: cell-based; parameters: key to coaggregation score without sugar: *: Coaggregations were reversed by both D-galactose and D-tagatose; settings: for coaggregation score: pair PK29/SO34, water score 4, scale 0 no visible to 4 maximum coaggregation; for coaggregation score without sugar: pair SO34/PK29, coaggregation score 4 without sugar
Experimental: as §1, §2

[9] = tested on: Streptococcus morbillorum PK509/Prevotella loescheii PK1295; experiment: reversal of coaggregation, visual score; type: cell-based; parameters: key to coaggregation score without sugar: *: Coaggregations were reversed by both D-galactose and D-tagatose; settings: pair PK509/PK1295; for coaggregation score without sugar: coaggregation score 2 without sugar; for coaggregation score: water score 2, scale 0 no visible to 4 maximum coaggregation
Experimental: as §1, §2

[10] = tested on: Streptococcus morbillorum PK509/Streptococcus oralis SO34; experiment: reversal of coaggregation, visual score; type: cell-based; parameters: key to coaggregation score without sugar: *: Coaggregations were reversed by both D-galactose and D-tagatose; settings: for coaggregation score: pair PK509/SO34, water score 2, scale 0 no visible to 4 maximum coaggregation; for coaggregation score without sugar: pair SO34/PK509, coaggregation score 2 without sugar
Experimental: as §1, §2

[11] = tested on: Streptococcus morbillorum PK509/Veillonella atypica PK1910; experiment: reversal of coaggregation, visual score; type: cell-based; parameters: key to coaggregation score without sugar: *: Coaggregations were reversed by both D-galactose and D-tagatose; settings: pair PK509/PK1910; for coaggregation score without sugar: coaggregation score 2 without sugar; for coaggregation score: water score 2, scale 0 no visible to 4 maximum coaggregation
Experimental: as §1, §2

[12] = tested on: Fusobacterium nucleatum PK1594/Porphyromonas gingivalis PK1924; experiment: reversal of coaggregation, visual score; type: cell-based; parameters: key to coaggregation score without sugar: *: Coaggregations were reversed by both D-galactose and D-tagatose; settings: pair PK1594/PK1924; for coaggregation score without sugar: coaggregation score 4 without sugar; for coaggregation score: water score 4, scale 0 no visible to 4 maximum coaggregation
Experimental: as §1, §2

[13] = tested on: Streptococcus morbillorum PK509/Streptococcus oralis C104; experiment: reversal of coaggregation, visual score; type: cell-based; parameters: key to coaggregation score without sugar: *: Coaggregations were reversed by both D-galactose and D-tagatose; settings: for coaggregation score without sugar: pair Cl04/PK509, coaggregation score 3 without sugar; for coaggregation score: pair PK509/C104, water score 3, scale 0 no visible to 4 maximum coaggregation
Experimental: as §1, §2

[14] = tested on: Fusobacterium nucleatum PK1594/Actinobacillus actinomycetemcomitans JP2; experiment: reversal of coaggregation, visual score; type: cell-based; parameters: key to coaggregation score without sugar: *: Coaggregations were reversed by both D-galactose and D-tagatose; settings: pair PK1594/JP2; for coaggregation score without sugar: coaggregation score 3 without sugar; for coaggregation score: water score 3, scale 0 no visible to 4 maximum coaggregation
Experimental: as §1, §2

[15] = tested on: Veillonella atypica PK1910/Streptococcus oralis SO34; experiment: reversal of coaggregation, visual score; type: cell-based; parameters: key to coaggregation score without sugar: *: Coaggregations were reversed by both D-galactose and D-tagatose; settings: for coaggregation score: pair PK1910/SO34, water score 3, scale 0 no visible to 4 maximum coaggregation; for coaggregation score without sugar: pair SO34/PK1910, coaggregation score 3 without sugar
Experimental: as §1, §2

[16] = tested on: Actinomyces naeslundii PK29/Streptococcus oralis C104; experiment: reversal of coaggregation, visual score; type: cell-based; parameters: key to coaggregation score without sugar: *: Coaggregations were reversed by both D-galactose and D-tagatose; settings: for coaggregation score without sugar: pair Cl04/PK29, coaggregation score 4 without sugar; for coaggregation score: pair PK29/C104, water score 4, scale 0 no visible to 4 maximum coaggregation
Experimental: as §1, §2

[17] = tested on: Fusobacterium nucleatum PK1594/Veillonella atypica PK1910; experiment: reversal of coaggregation, visual score; type: cell-based; parameters: key to coaggregation score without sugar: *: Coaggregations were reversed by both D-galactose and D-tagatose; settings: pair PK1594/PK1910; for coaggregation score without sugar: coaggregation score 3 without sugar; for coaggregation score: water score 3, scale 0 no visible to 4 maximum coaggregation
Experimental: as §1, §2

[18] = tested on: Prevotella loescheii PK1295/Streptococcus mitis J22; experiment: reversal of coaggregation, visual score; type: cell-based; parameters: key to coaggregation score without sugar: *: Coaggregations were reversed by both D-galactose and D-tagatose; settings: for coaggregation score without sugar: pair J22/PK1295, coaggregation score 3 without sugar; for coaggregation score: pair PK1295/J22, water score 4, scale 0 no visible to 4 maximum coaggregation
Experimental: as §1, §2

[19] = pair SO34/PK1295, coaggregation score 4 without sugar
[20] = pair Cl04/PK1295, coaggregation score 4 without sugar

For `O=C(CO)[C@@H](O)[C@@H](O)[C@H](O)CO` [D-Tagatose], the “dissociation of coaggregate clumps” value ([1]; 400 mM final concentration) was “dissociates the clumps into individual cells”, the coaggregation score ([2]; pair PK1295/SO34, sugar 750 mM, water score 4, scale 0 no visible to 4 maximum coaggregation) was 1 and the coaggregation score [2, 19] was 4*. The coaggregation score [3, 20] was 4*, the coaggregation score ([3]; pair PK1295/C104, sugar 750 mM, water score 4, scale 0 no visible to 4 maximum coaggregation) was 2 and the “coaggregation score without sugar” value [4] was 1*. The “plaque reversibility, comparison of Table 2” value ([5]; D-tagatose and D-sorbitol at somewhat higher concentrations than D-galactose) was “virtually equal to that of D-galactose”, the “share of strong coaggregating pairs whose coaggregation was completely reversed” value ([5]; concentration of less than 750 mM, 28 strong coaggregating pairs tested) was 60% and the “number of strong coaggregating pairs whose coaggregation was completely reversed” value ([5]; concentration of less than 750 mM, of 28 strong coaggregating pairs (score of 2 or higher) tested) was 17. For the same molecule, the colonizers acted on ([5]; late colonizers were gram-negative anaerobes) was “acted on both early colonizers and late colonizers”, the coaggregation score ([6]; sugar 200 mM) was 0 and the reversal of coaggregation [6] was 2*. The “coaggregation score without sugar” value [7] was 3*, the coaggregation score ([7]; sugar 200 mM) was 1 and the coaggregation score ([8]; sugar 750 mM) was 1. The “coaggregation score without sugar” value [8] was 4*, the “coaggregation score without sugar” value [9] was 2* and the coaggregation score ([9]; sugar 600 mM) was 0. The coaggregation score ([10]; sugar 400 mM) was 1, the “coaggregation score without sugar” value [10] was 2* and the “coaggregation score without sugar” value [11] was 2*. The coaggregation score ([11]; sugar 400 mM) was 0, the “coaggregation score without sugar” value [12] was 4* and the coaggregation score ([12]; sugar 400 mM) was 0. For the same molecule, the “coaggregation score without sugar” value [13] was 3*, the coaggregation score ([13]; sugar 750 mM) was 1 and the “coaggregation score without sugar” value [14] was 3*. The coaggregation score ([14]; sugar 600 mM) was 0, the coaggregation score ([15]; sugar 200 mM) was 1 and the “coaggregation score without sugar” value [15] was 3*. For the same molecule, the “coaggregation score without sugar” value [16] was 4*, the coaggregation score ([16]; sugar 750 mM) was 1 and the “coaggregation score without sugar” value [17] was 3*. The coaggregation score ([17]; sugar 200 mM) was 0, the “coaggregation score without sugar” value [18] was 3* and the coaggregation score ([18]; sugar 750 mM) was 2.

In the case of `O=C[C@H](O)[C@@H](O)[C@@H](O)[C@H](O)CO` [D-Galactose], the “dissociation of coaggregate clumps” value ([1]; 143 mM final concentration) is reported as “dissociates clumps into individual cells”, the coaggregation score ([2]; pair PK1295/SO34, sugar 143 mM, water score 4, scale 0 no visible to 4 maximum coaggregation) is reported as 0 and the coaggregation score [2, 19] is reported as 4*. For the same molecule, the coaggregation score [3, 20] was 4*, the coaggregation score ([3]; pair PK1295/C104, sugar 143 mM, water score 4, scale 0 no visible to 4 maximum coaggregation) was 1 and the “coaggregation score without sugar” value [4] was 1*. For the same molecule, the “reversibility of the D-tagatose sensitive coaggregations” value [5] was “reversible”, the coaggregation score ([6]; sugar 143 mM) was 0 and the reversal of coaggregation [6] was 2*. The “coaggregation score without sugar” value [7] was 3*, the coaggregation score ([7]; sugar 143 mM) was 0 and the coaggregation score ([8]; sugar 143 mM) was 1. The “coaggregation score without sugar” value [8] was 4*, the “coaggregation score without sugar” value [9] was 2* and the coaggregation score ([9]; sugar 143 mM) was 0. For the same molecule, the coaggregation score ([10]; sugar 143 mM) was 0, the “coaggregation score without sugar” value [10] was 2* and the “coaggregation score without sugar” value [11] was 2*. For the same molecule, the coaggregation score ([11]; sugar 143 mM) was 0, the “coaggregation score without sugar” value [12] was 4* and the coaggregation score ([12]; sugar 143 mM) was 0. For the same molecule, the “coaggregation score without sugar” value [13] was 3*, the coaggregation score ([13]; sugar 143 mM) was 0 and the “coaggregation score without sugar” value [14] was 3*. For the same molecule, the coaggregation score ([14]; sugar 143 mM) was 1, the coaggregation score ([15]; sugar 143 mM) was 1 and the “coaggregation score without sugar” value [15] was 3*. For the same molecule, the “coaggregation score without sugar” value [16] was 4*, the coaggregation score ([16]; sugar 143 mM) was 1 and the “coaggregation score without sugar” value [17] was 3*. The coaggregation score ([17]; sugar 143 mM) was 0, the “coaggregation score without sugar” value [18] was 3* and the coaggregation score ([18]; sugar 143 mM) was 0.
